Key:
Type in all cases: cell-based
TRPM4 [1] = molecular target: T1, TRPM4 (Homo sapiens, UniProt Q8TD43)
TRPM5 = molecular target: T2, TRPM5 (Homo sapiens, UniProt Q9NZQ8); experiment: Excised membrane voltage clamp recordings on HEK293 cells expressing TRPM5; conditions: excised patches, 50 μM free Ca2+, +100 mV
T2 sequence (Q9NZQ8 1-1165): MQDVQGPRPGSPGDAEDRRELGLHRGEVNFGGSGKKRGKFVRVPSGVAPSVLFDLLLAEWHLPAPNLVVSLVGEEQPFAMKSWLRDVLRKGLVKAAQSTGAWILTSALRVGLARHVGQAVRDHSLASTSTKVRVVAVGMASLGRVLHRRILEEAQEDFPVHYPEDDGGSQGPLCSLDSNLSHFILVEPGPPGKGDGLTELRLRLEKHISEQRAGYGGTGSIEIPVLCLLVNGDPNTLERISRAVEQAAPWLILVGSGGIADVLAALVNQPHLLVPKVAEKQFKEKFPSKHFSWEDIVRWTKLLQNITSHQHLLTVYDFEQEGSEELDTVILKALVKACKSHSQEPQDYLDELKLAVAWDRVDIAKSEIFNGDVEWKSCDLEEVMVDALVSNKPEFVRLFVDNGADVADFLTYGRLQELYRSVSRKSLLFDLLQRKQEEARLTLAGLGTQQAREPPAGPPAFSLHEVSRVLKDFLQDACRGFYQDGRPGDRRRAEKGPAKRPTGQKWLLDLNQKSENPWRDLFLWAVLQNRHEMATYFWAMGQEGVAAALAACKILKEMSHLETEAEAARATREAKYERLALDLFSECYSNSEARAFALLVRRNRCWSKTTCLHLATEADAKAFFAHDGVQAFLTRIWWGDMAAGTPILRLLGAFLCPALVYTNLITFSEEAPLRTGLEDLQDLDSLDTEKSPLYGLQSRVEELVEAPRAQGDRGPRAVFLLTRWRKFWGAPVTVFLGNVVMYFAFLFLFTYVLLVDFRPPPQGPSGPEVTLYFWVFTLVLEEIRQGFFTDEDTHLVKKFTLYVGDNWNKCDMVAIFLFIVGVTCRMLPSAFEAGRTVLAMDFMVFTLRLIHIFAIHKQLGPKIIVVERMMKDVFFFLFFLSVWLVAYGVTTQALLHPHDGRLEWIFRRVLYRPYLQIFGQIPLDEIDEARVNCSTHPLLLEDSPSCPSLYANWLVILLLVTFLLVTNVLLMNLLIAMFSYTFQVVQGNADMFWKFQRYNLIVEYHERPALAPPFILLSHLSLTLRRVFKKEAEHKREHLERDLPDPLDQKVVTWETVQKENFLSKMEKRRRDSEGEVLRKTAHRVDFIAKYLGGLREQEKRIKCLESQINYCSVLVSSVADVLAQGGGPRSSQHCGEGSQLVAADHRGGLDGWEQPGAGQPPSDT

TRPM4 [2] = molecular target: T1, TRPM4; experiment: Na+ influx screening assay
TRPM4 A432T = TRPM4 A432T (Homo sapiens, UniProt Q8TD43, A432T); experiment: Western blot of total and surface expression of TRPM4 A432T variant; conditions: 50 μM overnight, HEK293
Chain of TRPM4 A432T (Q8TD43 whole entry A432T): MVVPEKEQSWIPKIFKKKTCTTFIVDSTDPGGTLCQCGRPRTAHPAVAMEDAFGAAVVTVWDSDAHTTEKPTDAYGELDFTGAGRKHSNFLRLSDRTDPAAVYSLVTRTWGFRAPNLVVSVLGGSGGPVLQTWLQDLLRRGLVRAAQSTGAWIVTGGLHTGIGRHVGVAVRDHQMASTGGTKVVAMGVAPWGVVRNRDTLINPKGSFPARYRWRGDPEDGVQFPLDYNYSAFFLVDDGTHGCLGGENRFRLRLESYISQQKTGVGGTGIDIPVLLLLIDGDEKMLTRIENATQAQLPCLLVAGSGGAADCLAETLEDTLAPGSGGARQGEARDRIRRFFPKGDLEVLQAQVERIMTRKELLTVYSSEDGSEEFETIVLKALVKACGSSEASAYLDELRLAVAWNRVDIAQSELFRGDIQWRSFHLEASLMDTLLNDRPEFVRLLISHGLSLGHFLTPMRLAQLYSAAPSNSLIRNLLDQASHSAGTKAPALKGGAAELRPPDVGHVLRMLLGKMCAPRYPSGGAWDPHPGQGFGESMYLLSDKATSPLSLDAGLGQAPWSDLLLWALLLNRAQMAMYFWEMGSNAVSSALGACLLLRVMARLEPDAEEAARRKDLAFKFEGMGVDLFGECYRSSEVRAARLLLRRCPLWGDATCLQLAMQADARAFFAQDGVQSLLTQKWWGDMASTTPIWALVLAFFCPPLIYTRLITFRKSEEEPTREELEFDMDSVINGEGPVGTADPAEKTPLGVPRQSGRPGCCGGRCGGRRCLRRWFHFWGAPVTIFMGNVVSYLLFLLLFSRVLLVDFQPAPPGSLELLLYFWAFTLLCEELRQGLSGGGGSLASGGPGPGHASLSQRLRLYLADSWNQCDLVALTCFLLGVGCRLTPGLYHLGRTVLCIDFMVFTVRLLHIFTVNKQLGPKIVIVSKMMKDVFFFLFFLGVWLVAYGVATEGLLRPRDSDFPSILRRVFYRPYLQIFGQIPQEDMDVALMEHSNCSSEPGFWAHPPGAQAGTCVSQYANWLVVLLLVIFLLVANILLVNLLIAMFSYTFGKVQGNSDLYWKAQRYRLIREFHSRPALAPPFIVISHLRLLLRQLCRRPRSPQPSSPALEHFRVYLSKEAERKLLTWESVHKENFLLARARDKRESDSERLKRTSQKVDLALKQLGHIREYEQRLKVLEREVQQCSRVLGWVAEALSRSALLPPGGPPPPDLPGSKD

T1 sequence (Q8TD43 whole entry): as the sequence (Q8TD43 whole entry A432T) above, with T432A counted along it

Oc1cc2ccccc2c2ccccc12 [9-phenanthrol, reference compound]
IC50 (TRPM4 [1]): 17 ± 2.8 µM

Cc1cc(Cl)ccc1OC(C)C(=O)Nc1cc(Cl)ccc1C(=O)O (stereo not shown) [Compound 4]
effect on TRPM5 current (TRPM5): variable potentiating effect
IC50 (TRPM4 [1]): 1 ± 0.2 µM
inhibition of TRPM4 current on application to the cytosolic side (TRPM4 [1]; 1 μM on cytosolic side of excised patches, washout): reversible inhibition
inhibitory activity on TRPM4-mediated Na+ influx, hit confirmation (TRPM4 [2]; 5 μM, repurchased solid samples): confirmed their inhibitory activity

O=C(COc1ccccc1Cl)Nc1cc(Br)ccc1C(=O)O [Compound 11]
IC50 (TRPM4 [1]): 1.6 ± 0.5 µM

Cc1cc(Cl)ccc1OCC(=O)Nc1cc(Cl)ccc1C(=O)O [Compound 51]
rescue of A432T total and surface expression (TRPM4 A432T): did not restore the expression
TRPM4 inhibitory activity in words (SAR) (TRPM4 [2]; Na+ influx, Supporting Information Table S3 / text): no inhibitory activity

O=C(O)c1ccccc1Nc1cccc(C(F)(F)F)c1 [FFA, flufenamic acid, reference compound]
IC50 (TRPM4 [1]): 9.2 ± 1.2 µM

O=P(c1ccccc1)(c1ccccc1)c1ccccc1 [TPPO, triphenylphosphine oxide, reference compound]
effect on TRPM5 current (positive control) (TRPM5; 20 μM): inhibited TRPM5 current

Reference: PMC6002741 (British Journal of Pharmacology, 2018)
